Broadly, the Ki is a measure of affinity in units of concentration, obtained from inhibition or displacement. The low end stands for tighter binding, the high end for weaker binding.

Molecules are shown by their SMILES.

The test deals with T1, Alpha-1A adrenergic receptor (Homo sapiens, UniProt P35348).
T1 sequence (P35348 whole entry): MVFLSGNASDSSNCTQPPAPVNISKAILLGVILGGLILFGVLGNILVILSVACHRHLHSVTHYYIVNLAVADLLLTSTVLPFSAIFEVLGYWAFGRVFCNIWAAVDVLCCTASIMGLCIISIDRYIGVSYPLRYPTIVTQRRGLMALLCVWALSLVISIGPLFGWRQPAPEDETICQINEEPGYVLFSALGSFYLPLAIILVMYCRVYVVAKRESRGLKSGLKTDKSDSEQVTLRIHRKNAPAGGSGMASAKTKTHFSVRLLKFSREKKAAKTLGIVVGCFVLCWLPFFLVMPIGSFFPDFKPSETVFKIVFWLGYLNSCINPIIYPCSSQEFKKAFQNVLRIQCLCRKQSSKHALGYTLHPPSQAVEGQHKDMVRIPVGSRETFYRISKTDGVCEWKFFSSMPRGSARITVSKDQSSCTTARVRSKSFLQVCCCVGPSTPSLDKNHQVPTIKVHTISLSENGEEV
On to `COc1ccc(OC)c(C(O)C(C)N)c1` (stereo not drawn), for which the Ki is more than 10000 nM.

Turning to `COc1cccc(OC)c1OCCNCC1Oc2ccccc2OC1c1ccccc1` (stereo not drawn) [NSC_185453], the affinity corresponds to a Ki of 0.23 nM.

The molecule `COc1ccccc1N1CCN(CCCNc2c(C)c(=O)n(C)c(=O)n2C)CC1` [Urapidil-5-methyl] had a Ki of 4.2 nM.

(Values after BindingDB's records for doi:10.1006/bbrc.1993.2130 (National Children's Medical Research Center, 1993).)
